Format in all cases: physicochemical
Data set [1] can be described thus: Solubility testing of solid forms in water, SGF, FaSSIF and FeSSIF media. The protocol: About 15 mg of test material was weighed into a sample vial and then 3.0 mL of water, simulated gastric fluid (SGF), fasted state simulated intestinali fluid (FaSSIF), or fed state simulated intestinal fluid (FeSSIF) media was added. The resulting suspensions were shaken at 37° C. for up to 24 hours. At 0.5, 2, and 24 hours, suspensions were filtered, and test material concentrations in the filtrates were analyzed by HPLC. Residual solids were collected for analysis.

A short description of data set [2]: Stability testing of blended samples exposed to high temperature and/or humidity for four weeks. From the text:
Compound 1, microcrystalline cellulose, D-mannitol, croscarmellose sodium, and magnesium stearate were blended using standard methods. Results from stability testing from exposure of blended samples to high temperature and/or humidity for four weeks are provided in Table 8.

The nature of data set [3]: Four-week excipient compatibility study under accelerated stress conditions. Conditions: four weeks, 40° C./75% relative humidity and 60° C. accelerated stress conditions.
The nature of data set [4]: Powder properties of Form 1 (bulk density, flowability). From the text:
Use of a glidant, disintegrant, and lubricant allowed for acceptable tableting and disintegration characteristics.

[5] abbreviates: FaSSIF, pH of media 6.5, 37° C.
Where [6] appears, read: FeSSIF, pH of media 5.0, 37° C.
Where [7] appears, read: FaSSIF, pH of media 6.5, 37° C., listed as Free base (Form 1).
Where [8] appears, read: FeSSIF, pH of media 5.0, 37° C., listed as Free base (Form 1).
Where [9] appears, read: SGF, pH of media 1.2, 37° C., listed as Free base (Form 1).
[10] abbreviates: Water, 37° C., listed as Free base (Form 1).
The mark [11] stands for this setting: FaSSIF, pH of media 6.5, 37° C., listed as Fumarate (Form 8).
Where [12] appears, read: FeSSIF, pH of media 5.0, 37° C., listed as Fumarate (Form 8).
Setting [13] is: SGF, pH of media 1.2, 37° C., listed as Fumarate (Form 8).
The mark [14] stands for this setting: Water, 37° C., listed as Fumarate (Form 8).
[15] abbreviates: SGF, pH of media 1.2, 37° C., listed as 1-Hydroxy-2-naphthoate (Form 13).
The mark [16] stands for this setting: Water, 37° C., listed as 1-Hydroxy-2-naphthoate (Form 13).

This note sets out measurements from patent publication US12466835B1, “Solid forms of macrocyclic compounds, salts and formulations thereof, and methods of preparing and using the same” (Kura Oncology, Inc., priority 2023, dated 2025).

SMILES strings stand for the structures. ≈ marks a conversion by molar mass, not a printed value.

Consider `Cn1cncc1[C@@]1(N)c2ccc(C#N)c(c2)COc2cccc(c2)-c2cc(C#N)nc3ccc1cc23` [Amorphous free base, (S)-3-amino-3-(1-methyl-1H-imidazol-5-yl)-6-oxa-2(4,6)-quinolina-1,4(1,3)-dibenzenacyclohexaphane-2^2,4^4-dicarbonitrile], for which the “Solubility (mg/mL) 2 h” value was 0.085 mg/mL (≈ 181 µM) in data set [1] (setting [5]); 1.22 mg/mL (≈ 2600 µM) in data set [1] (setting [6]); roughly 5 mg/mL (≈ 10700 µM) in data set [1] (SGF, pH of media 1.2, 37° C.); 0.002 mg/mL (≈ 4.27 µM) in data set [1] (Water, 37° C.). In addition, the “Solubility (mg/mL) 24 h” value in data set [1] (setting [5]) was 0.09 mg/mL (≈ 192 µM); in data set [1] (setting [6]), 1.29 mg/mL (≈ 2750 µM); in data set [1] (SGF, pH of media 1.2, 37° C.), roughly 5 mg/mL (≈ 10700 µM); in data set [1] (Water, 37° C.), 0.0009 mg/mL (≈ 1.92 µM).

On to `Cn1cncc1[C@@]1(N)c2ccc(C#N)c(c2)COc2cccc(c2)-c2cc(C#N)nc3ccc1cc23` [Compound 1, (S)-3-amino-3-(1-methyl-1H-imidazol-5-yl)-6-oxa-2(4,6)-quinolina-1,4(1,3)-dibenzenacyclohexaphane-2^2,4^4-dicarbonitrile], for which, in data set [2], the “% Purity 60° C.” value stood at 99.35%. Further, the “Compatibility with Tablet Formulation 1 excipients” value in data set [3] was “no incompatibility”.

With `Cn1cncc1[C@@]1(N)c2ccc(C#N)c(c2)COc2cccc(c2)-c2cc(C#N)nc3ccc1cc23` [Form 1, (S)-3-amino-3-(1-methyl-1H-imidazol-5-yl)-6-oxa-2(4,6)-quinolina-1,4(1,3)-dibenzenacyclohexaphane-2^2,4^4-dicarbonitrile], the “Solubility (mg/mL) 2 h” value in data set [1] (setting [7]) is given as 0.0066 mg/mL (≈ 14.1 µM); in data set [1] (setting [6]), roughly 0.31 mg/mL (≈ 662 µM); in data set [1] (setting [8]), 0.31 mg/mL (≈ 662 µM); in data set [1] (SGF, pH of media 1.2, 37° C.) it was roughly 5.04 mg/mL (≈ 10800 µM); in data set [1] (setting [9]), 5.04 mg/mL (≈ 10800 µM); in data set [1] (setting [10]), “<LOD”. Further, the “Solubility (mg/mL) 24 h” value in data set [1] (setting [7]) is recorded as 0.011 mg/mL (≈ 23.5 µM); in data set [1] (setting [6]), roughly 0.33 mg/mL (≈ 704 µM); in data set [1] (setting [8]), 0.33 mg/mL (≈ 704 µM); in data set [1] (SGF, pH of media 1.2, 37° C.) it was roughly 3.67 mg/mL (≈ 7830 µM); in data set [1] (setting [9]), 3.67 mg/mL (≈ 7830 µM); in data set [1] (setting [10]), “<LOD”. For the same molecule, in data set [4], the bulk density entry was “about 0.2 g/mL”.

On to `Cn1cncc1[C@@]1(N)c2ccc(C#N)c(c2)COc2cccc(c2)-c2cc(C#N)nc3ccc1cc23` [Form 8, (S)-3-amino-3-(1-methyl-1H-imidazol-5-yl)-6-oxa-2(4,6)-quinolina-1,4(1,3)-dibenzenacyclohexaphane-2^2,4^4-dicarbonitrile], for which the “Solubility (mg/mL) 2 h” value in data set [1] (setting [11]) is reported as 0.16 mg/mL (≈ 342 µM); in data set [1] (setting [6]), roughly 1.26 mg/mL (≈ 2690 µM); in data set [1] (setting [12]), 1.26 mg/mL (≈ 2690 µM); in data set [1] (SGF, pH of media 1.2, 37° C.), no less than 5 mg/mL; in data set [1] (setting [13]) it was roughly 5 mg/mL (≈ 10700 µM); in data set [1] (setting [14]), 0.43 mg/mL (≈ 918 µM). Further, the “Solubility (mg/mL) 24 h” value is 0.45 mg/mL (≈ 960 µM) in data set [1] (setting [11]); roughly 1.15 mg/mL (≈ 2450 µM) in data set [1] (setting [6]); 1.15 mg/mL (≈ 2450 µM) in data set [1] (setting [12]); no less than 5 mg/mL in data set [1] (SGF, pH of media 1.2, 37° C.); roughly 5 mg/mL (≈ 10700 µM) in data set [1] (setting [13]); 0.34 mg/mL (≈ 726 µM) in data set [1] (setting [14]).

`Cn1cncc1[C@@]1(N)c2ccc(C#N)c(c2)COc2cccc(c2)-c2cc(C#N)nc3ccc1cc23` [Form 13, (S)-3-amino-3-(1-methyl-1H-imidazol-5-yl)-6-oxa-2(4,6)-quinolina-1,4(1,3)-dibenzenacyclohexaphane-2^2,4^4-dicarbonitrile]: the “Solubility (mg/mL) 2 h” value in data set [1] (FaSSIF, pH of media 6.5, 37° C., listed as 1-Hydroxy-2-naphthoate (Form 13)) is listed as 0.086 mg/mL (≈ 184 µM); in data set [1] (setting [6]), roughly 0.82 mg/mL (≈ 1750 µM); in data set [1] (FeSSIF, pH of media 5.0, 37° C., listed as 1-Hydroxy-2-naphthoate (Form 13)), 0.82 mg/mL (≈ 1750 µM); in data set [1] (SGF, pH of media 1.2, 37° C.), roughly 4.05 mg/mL (≈ 8640 µM); in data set [1] (setting [15]), 4.05 mg/mL (≈ 8640 µM); in data set [1] (setting [16]) it was 0.020 mg/mL (≈ 42.7 µM). Moreover, the “Solubility (mg/mL) 24 h” value is on record as roughly 4.12 mg/mL (≈ 8790 µM) in data set [1] (SGF, pH of media 1.2, 37° C.); 4.12 mg/mL (≈ 8790 µM) in data set [1] (setting [15]); 0.013 mg/mL (≈ 27.7 µM) in data set [1] (setting [16]).
